Laboratory results reported in paper PMC9065678, “BI 1015550 is a PDE4B Inhibitor and a Clinical Drug Candidate for the Oral Treatment of Idiopathic Pulmonary Fibrosis” (Frontiers in Pharmacology, 2022).

Legend:
α-SMA protein expression = α-SMA protein expression of TGF-β-stimulated IPF lung fibroblasts (Western blot replacement assay); format: cell-based, human
Description: Fibroblasts from donors with IPF (IPF-LF) (Asterand, Detroit, MI, United States) were grown in fibroblast basal medium (CC-3131, Lonza Walkersville, Inc., Walkersville, MD, United States) supplemented with FGM-2 SingleQuot Kit Supplements and Growth Factors (CC-4126, Lonza). Cells were grown in a humidified incubator at 37°C and 5% CO2. All assays were performed at passage 7 or 8. For assay set-up, cells were seeded in fibroblast growth medium plus supplements in assay-relevant densities. For TGF-β-stimulated assays, cells were seeded at 4,500 cells per well in 96-well plates. Proliferation assays were performed in 96-well plates at an initial seeding cell density on day 0 of 2,000 cells per well. After 24-h, the cell culture medium was changed to starvation medium (fibroblast basal medium without supplements). After a 24-h starvation period, cells were pre-incubated for 30 min with different concentrations of BI 1015550 plus/minus different concentrations of nintedanib and/or 1 nmol/L PGE2 and stimulated with the assay-relevant stimulus for the indicated time in the presence of the compound.
For determination of α-SMA protein expression, IPF-LF cells were stimulated with TGF-β (4 ng/mL) for 48 h. Lysates were assayed in a Western blot replacement assay (MSD). In short, lysates were pipetted onto high binding plates (MSD) and were sequentially incubated with a mouse anti-human α-SMA antibody (Sigma Aldrich) and an anti-mouse sulfo-tag antibody (MSD). For analysis, an MSD sector imager was used.

PDE1C = molecular target: T1, PDE1C (Homo sapiens, UniProt Q14123); assay: Recombinant PDE activity, scintillation proximity assay: PDE1C; format: biochemical
T1 construct: the full-length open reading frames of PDE1C; made in house; host or cells: SF9 insect cells (baculovirus, Bac-To-Bac, pFastbac)
Text: For the preparation of human recombinant PDEs of interest, the Bac-To-Bac baculoviral expression system from Invitrogen (Carlsbad, CA, United States) was used according to the instruction manual. In short, the full-length open reading frames of PDE1C (National Center for Biotechnology Information Gene-Ref-Seq identifier NG_051183), PDE3A (NG_030033), PDE4A (NG_029594, AA 156–886), PDE4C (NG_029629), PDE7A (NG_029614), and PDE9A (NG_047067) were cloned into the plasmid vector pFastbac. For PDE4B and PDE4D, active site fragments were used (PDE4B NG_029038: AA 152–484, PDE4D NG_027957, AA 79–438). The plasmids were transformed into DH10Bac bacteria, SF9 insect cells were transfected with the bacmid DNA, and the resulting baculoviruses were stored and used for further rounds of infections. […] The protein content was measured and an equal volume of 87% (v/v) glycerol was added prior to freezing at −20°C. […] The reaction was stopped by addition of 50 µL of yttrium silicate scintillation proximity assay beads (17.8 mg/mL, 18 mM zinc sulfate in H2O) and the amount of produced [^3H]AMP/[^3H]GMP associated was determined using a Wallac Microbeta scintillation counter. […]

[1] = system: LPS-stimulated IL-6 release; assay: LPS-stimulated IL-6 release in rat whole blood; format: cell-based; settings: high concentrations
Description: Heparinized whole blood was collected from the Aorta abdominalis of WI (Han) male rats (Charles River Laboratories, Sulzfeld, Germany) and from healthy male human donors, and treated with 1 µL (rat) or 2.5 µL (human) of BI 1015550 or vehicle [final DMSO concentration 0.5% (v/v)]. Final assay volumes were 200 μL (rat) and 500 μL (human). After incubation for 30 min at 37°C, 95% humidity, and 5% CO2, cultures were treated with LPS [final concentration 10 µg/mL (rat), 0.1 µg/mL (human)] or saline. After 7 h, plates were centrifuged at 3.200 × g at 4°C for 10 min and plasma was used for cytokine measurement. Meso Scale Discovery (MSD) (Rockville, MD, United States) rat and human pro-inflammatory panels were used for detection of TNF-α and IL-6 in rat plasma [diluted 1:2 (v/v)]) and human plasma [negative control undiluted, other samples diluted 1:200 (v/v)] according to the manufacturer’s instructions.

[2] = system: LPS-induced neutrophil influx into the BALF; assay: LPS-induced neutrophil influx into the BALF of Suncus murinus; format: in vivo
Text: Compared with other animal species used to study emesis induction by PDE4 inhibitors, like ferrets, dogs, minipigs, or monkeys, Suncus murinus allows the testing of a sufficient number of animals to provide a high statistical power. […] Male Suncus murinus (weight 50–55 g) from Boehringer Ingelheim (Biberach an der Riss, Germany) or male Wistar rats (200–250 g, Charles River), eight animals per group, were used. […] For this purpose, animals in the positive control and treatment groups were put into a circular Plexiglas chamber with 16 pie-like compartments for one animal each, and were consecutively exposed to nebulized LPS for 30 min. The LPS solution used for nebulization contained 1 mg/mL LPS in phosphate-buffered saline (PBS). Nebulization was performed with the commercially available PARI Master® nebulizer with a PARI Master® LL adapter (Pari GmbH, Starnberg, Germany). 4 h after LPS exposure, the animals were anesthetized and euthanized by cervical dislocation. After sacrifice, the trachea was cannulated and bronchoalveolar lavage was performed by instilling and re-aspirating two-times 1 mL (Suncus murinus) or 5 mL (rat) lavage buffer (PBS +2% bovine serum albumin). BALF volumes were recorded manually. Determination of neutrophil numbers in BALF was performed using a blood hemacytometer (Sysmex XT-1800i, Kobe, Japan).

T1 sequence (Q14123 whole entry): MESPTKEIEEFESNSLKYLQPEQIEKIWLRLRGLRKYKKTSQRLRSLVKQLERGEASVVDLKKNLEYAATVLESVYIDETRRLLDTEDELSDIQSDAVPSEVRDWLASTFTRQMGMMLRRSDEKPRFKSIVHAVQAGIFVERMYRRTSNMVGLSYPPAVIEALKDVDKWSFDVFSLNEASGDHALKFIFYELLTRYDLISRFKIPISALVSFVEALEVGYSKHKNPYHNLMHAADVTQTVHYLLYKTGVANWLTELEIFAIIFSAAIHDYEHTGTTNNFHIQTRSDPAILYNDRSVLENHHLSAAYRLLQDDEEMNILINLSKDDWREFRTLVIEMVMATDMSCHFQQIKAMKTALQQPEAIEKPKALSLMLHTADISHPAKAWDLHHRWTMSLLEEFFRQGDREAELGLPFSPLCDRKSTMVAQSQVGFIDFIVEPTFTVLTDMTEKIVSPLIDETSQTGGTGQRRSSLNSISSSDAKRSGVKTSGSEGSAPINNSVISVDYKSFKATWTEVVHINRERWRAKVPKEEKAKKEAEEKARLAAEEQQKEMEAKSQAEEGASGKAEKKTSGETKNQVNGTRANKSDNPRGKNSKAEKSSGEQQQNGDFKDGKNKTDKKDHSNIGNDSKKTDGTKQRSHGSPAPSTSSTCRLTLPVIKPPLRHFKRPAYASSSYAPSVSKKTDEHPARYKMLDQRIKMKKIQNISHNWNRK

## [O-][S+]1CCc2nc(N3CCC(c4ncc(Cl)cn4)CC3)nc(NC3(CO)CCC3)c21 (stereo not shown) [BI 1015550]
α-SMA protein expression; TGF-β (4 ng/mL, 48 h)-stimulated IPF-LF
  IC50: 0.21 µM
α-SMA protein expression; combination with nintedanib 10–100 nmol/L
  Additional inhibitory efficacy on α-SMA protein expression in combination: did not result in additional inhibitory efficacy
α-SMA protein expression; combination with pirfenidone (100 µmol/L), data not shown
  Additional inhibitory effects in combination, myofibroblast transformation assay: did not yield any additional inhibitory effects
PDE1C; substrate cAMP
  IC50: 46 µM
PDE1C; substrate cGMP
  IC50: 85 µM
[1]
  Increase of IL-6 compared with LPS-treated samples without PDE4 inhibitor: fourfold
[2]; 0.1 mg/kg p.o.
  Neutrophils in BALF, inhibition in % given as negative number: −23%
[2]; 0.3 mg/kg p.o.
  Neutrophils in BALF, inhibition in % given as negative number: −36%
[2]; 1.0 mg/kg p.o.
  Neutrophils in BALF, inhibition in % given as negative number: −59%
[2]; oral, 30 min before nebulized LPS
  ED50 LPS-induced BALF neutrophils: 0.6 mg/kg
